Measured values published in ChEMBL document CHEMBL4190251, “Design and synthesis of conformationally constrained salinomycin derivatives” (Eur J Med Chem, 2017).

Experiments:
HT-29 [1] = assay: Antiproliferative activity against human HT-29 cells at 10 uM after 48 hrs by MTT assay relative to control; format: functional
HT-29 [2] = assay: Antiproliferative activity against human HT-29 cells after 48 hrs by MTT assay; format: functional, cell-based; conditions: HT-29, 48 h

| Compound | Activity (HT-29 [1]) [%] | IC50 (HT-29 [2]) [µM] |
| --- | --- | --- |
| C=CCCC(=O)O[C@@H]1CC[C@]2(O[C@H]([C@@H](CC)C(=O)[C@@H](C)[C@@H](O)[C@H](C)[C@@H]3O[C@@H]([C@@H](CC)C(=O)OCC=C)CC[C@@H]3C)[C@@H](C)C[C@H]2C)O[C@@]12CC[C@@](C)([C@H]1CC[C@](O)(CC)[C@H](C)O1)O2 | <10 |  |
| CC[C@H]1C(=O)[C@@H](C)[C@@H](O)[C@H](C)[C@@H]2O[C@H](CC[C@@H]2C)[C@@H](CC)C(=O)OC/C=C/CCC(=O)O[C@@H]2CC[C@]3(O[C@H]1[C@@H](C)C[C@H]3C)O[C@@]21CC[C@@](C)([C@H]2CC[C@](O)(CC)[C@H](C)O2)O1 | 67 | 7.64 |
| C=CCOC(=O)[C@H](CC)[C@H]1CC[C@H](C)[C@H]([C@@H](C)[C@H](O)[C@H](C)C(=O)[C@H](CC)[C@H]2O[C@]3(CC[C@@H](OC(=O)C=C)[C@]4(CC[C@@](C)([C@H]5CC[C@](O)(CC)[C@H](C)O5)O4)O3)[C@H](C)C[C@@H]2C)O1 | <10 |  |
| CC[C@H]1C(=O)[C@@H](C)[C@@H](O)[C@H](C)[C@@H]2O[C@H](CC[C@@H]2C)[C@@H](CC)C(=O)OC/C=C/C(=O)O[C@@H]2CC[C@]3(O[C@H]1[C@@H](C)C[C@H]3C)O[C@@]21CC[C@@](C)([C@H]2CC[C@](O)(CC)[C@H](C)O2)O1 | 13.6 | > 10 |
| CC[C@@H](C(=O)[C@@H](C)[C@@H](O)[C@H](C)[C@@H]1O[C@@H]([C@@H](CC)C(=O)O)CC[C@@H]1C)[C@H]1O[C@]2(C=C[C@@H](O)[C@]3(CC[C@@](C)([C@H]4CC[C@](O)(CC)[C@H](C)O4)O3)O2)[C@H](C)C[C@@H]1C [SALINOMYCIN] | 76.1 |  |
